Where a SMILES comes first, the peptide text is derived from it. Bridges are numbered along the chain shown (N, C = ends). [ ]: non-standard residue; d: D form. The star is where a group is joined. Phe(4-COOH) = N[C@@H](Cc1ccc(C(=O)O)cc1)C(=O)O; Bip = N[C@@H](Cc1ccc(-c2ccccc2)cc1)C(=O)O; Phe(4-NH2) = Nc1ccc(C[C@H](N)C(=O)O)cc1; Phe(3-F) = N[C@@H](Cc1cccc(F)c1)C(=O)O; Phe(3-Me) = Cc1cccc(C[C@H](N)C(=O)O)c1; Cha = N[C@@H](CC1CCCCC1)C(=O)O; Cit = NC(=O)NCCC[C@H](N)C(=O)O; dCha = N[C@H](CC1CCCCC1)C(=O)O; dDab = NCC[C@@H](N)C(=O)O; Carboxymethyl = O=C(O)C*; Orn = NCCC[C@H](N)C(=O)O; Dab = NCC[C@H](N)C(=O)O; Abu = CC[C@H](N)C(=O)O; Dap = NC[C@H](N)C(=O)O; Ac3c = NC1(C(=O)O)CC1
Molecular target: T1, human PD-1 / PD-L1-Ig binding on Jurkat cell line over-expressing human PD-1 (Jurkat-PD-1) (Homo sapiens, UniProt Q15116)
T1 construct: expressed in transfected cells; host or cells: Jurkat
Assay: Jurkat-PD-1 Cell Binding High-Content Screening Assay (CBA)
Format: cell-based
Conditions: Jurkat HPD1_PDL1 IC50, Jurkat-PD-1 cells, PE-labeled PD-L1-Ig 20 nM final
Method in brief: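 Jurkat-hPD-1 cells in DMEM with 10% fetal calf serum receive test compound and are held at 37° C for 2 h. PE-labeled PD-L1-Ig is added at 20 nM final and left for 1 hour. Cells are then fixed and Hoechst-stained, and binding is measured by imaging.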

T1 sequence (Q15116 25-288): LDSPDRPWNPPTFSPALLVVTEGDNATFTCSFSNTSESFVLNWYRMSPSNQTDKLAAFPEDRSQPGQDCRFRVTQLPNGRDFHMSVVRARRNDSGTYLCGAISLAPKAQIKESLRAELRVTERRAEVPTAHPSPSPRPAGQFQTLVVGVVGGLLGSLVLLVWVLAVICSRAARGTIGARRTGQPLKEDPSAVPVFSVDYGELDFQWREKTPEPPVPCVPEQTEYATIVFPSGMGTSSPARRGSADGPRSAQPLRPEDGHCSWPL

| SMILES | IC50 [nM] |
| --- | --- |
| CC(C)C[C@H]1NC(=O)[C@H](CCCN)NC(=O)[C@H](C(C)C)NC(=O)[C@H](Cc2ccc(-c3ccccc3)cc2)NC(=O)[C@H](C(C)C)NC(=O)[C@H](Cc2c[nH]c3ccccc23)NC(=O)[C@H](CC(=O)O)NC(=O)[C@H](Cc2ccc(C(=O)O)cc2)NC(=O)[C@H](Cc2ccc(OCC(=O)O)cc2)NC(=O)CSC[C@@H](C(=O)N[C@@H](CCN)C(=O)N[C@@H](CCCNC(=N)N)C(=O)O)NC(=O)[C@H](CCCN)NC(=O)[C@H](C(C)C)NC(=O)[C@H](CC2CCCCC2)NC(=O)[C@H](CCN)NC1=O [Compound 2587] ({CH2CO}-Y(Carboxymethyl)[Phe(4-COOH)]DWV[Bip]V[Orn][dL][Dab][Cha]V[Orn]C[Dab]R-OH; thioether N-14) | 18.4 |

Same assay, conditions: Jurkat-PD-1 cells, PE-labeled PD-L1-Ig 20 nM final; read-out: Jurkat HPD1_PDL1 IC50

| SMILES | IC50 [nM] |
| --- | --- |
| CC(C)C[C@H]1NC(=O)[C@H](CCCN)NC(=O)[C@H](CCCNC(N)=O)NC(=O)[C@H](Cc2ccc(-c3ccccc3)cc2)NC(=O)[C@H](C(C)C)NC(=O)[C@H](Cc2c[nH]c3ccccc23)NC(=O)[C@H](CC(=O)O)NC(=O)[C@H](Cc2ccc(OCC(=O)O)cc2)NC(=O)[C@H](CN)NC(=O)CSC[C@@H](C(=O)N[C@@H](C)C(N)=O)NC(=O)[C@H]([C@@H](C)O)NC(=O)[C@H](C(C)C)NC(=O)[C@H](Cc2ccccn2)NC(=O)[C@H](CCN)NC1=O [Compound 1349] | 54.9 |
| CC(C)C[C@H]1NC(=O)[C@H](CCCN)NC(=O)[C@H](CCC(=O)O)NC(=O)[C@H](Cc2ccc(-c3ccccc3)cc2)NC(=O)[C@H](C(C)C)NC(=O)[C@H](Cc2c[nH]c3ccccc23)NC(=O)[C@H](CC(=O)O)NC(=O)[C@H](Cc2ccc(N)cc2)NC(=O)[C@H](CC(N)=O)NC(=O)CSC[C@@H](C(=O)N[C@@H](C)C(N)=O)NC(=O)[C@H]([C@@H](C)O)NC(=O)[C@H](C(C)C)NC(=O)[C@H](CC2CCCCC2)NC(=O)[C@H](CCN)NC1=O [Compound 2180] ({CH2CO}-N[Phe(4-NH2)]DWV[Bip]E[Orn][dL][Dab][Cha]VTCA-NH2; thioether N-14) | 28.1 |
| CCC(C)[C@@H]1NC(=O)[C@H](Cc2ccc(-c3ccccc3)cc2)NC(=O)[C@H](C(C)C)NC(=O)[C@H](Cc2cccc(C)c2)NC(=O)[C@H](CC(=O)O)NC(=O)[C@H](Cc2ccc(OCC(=O)O)cc2)NC(=O)[C@H](Cc2ccncc2)NC(=O)CSC[C@@H](C(=O)N[C@@H](C)C(N)=O)NC(=O)[C@H](CO)NC(=O)[C@H](C(C)C)NC(=O)[C@H](CC2CCCCC2)NC(=O)[C@H](CCN)NC(=O)[C@@H](CC(C)C)NC(=O)[C@H](CCCN)NC1=O (stereo partly drawn) [Compound 2535] | 38 |
| CC(C)C[C@@H]1NC(=O)[C@H](Cc2c[nH]c3ccccc23)NC(=O)[C@H](CC(=O)O)NC(=O)[C@H](Cc2ccc(O)cc2)NC(=O)[C@H](Cc2ccccc2)NC(=O)CSC[C@@H](C(=O)N[C@@H](C)C(N)=O)NC(=O)[C@H](CO)NC(=O)[C@H](C(C)C)NC(=O)[C@H](CC(C)C)NC(=O)[C@H](CC(N)=O)NC(=O)[C@@H](C)NC(=O)[C@@H](CCN)NC(=O)[C@H](C(C)C)NC(=O)[C@H](Cc2ccc(-c3ccccc3)cc2)NC1=O [Compound 2003] ({CH2CO}-FYDWL[Bip]V[dDab][dA]NLVSCA-NH2; thioether N-14) | 35 |
| Cc1cccc(C[C@@H]2NC(=O)[C@H](CC(=O)O)NC(=O)[C@H](Cc3ccc(OCC(=O)O)cc3)NC(=O)[C@H](Cc3ccc(OCC(=O)O)cc3)NC(=O)CSC[C@@H](C(N)=O)NC(=O)[C@H](CO)NC(=O)[C@H](C(C)C)NC(=O)[C@H](CC(C)C)NC(=O)[C@H](CCN)NC(=O)[C@@H](CC(C)C)NC(=O)[C@H](CCCN)NC(=O)[C@H](CCCNC(N)=O)NC(=O)[C@H](Cc3ccc(-c4ccccc4)cc3)NC(=O)[C@H](CC(C)C)NC2=O)c1 [Compound 1656] ({CH2CO}-Y(Carboxymethyl)Y(Carboxymethyl)D[Phe(3-Me)]L[Bip][Cit][Orn][dL][Dab]LVSC-NH2; thioether N-14) | 36.4 |
| CC(C)[C@@H]1NC(=O)[C@H](Cc2c[nH]c3ccccc23)NC(=O)[C@H](CC(=O)O)NC(=O)[C@H](Cc2ccc(OCC(=O)O)cc2)NC(=O)[C@H](Cc2ccc(OCC(=O)O)cc2)NC(=O)CSC[C@@H](C(=O)N[C@@H](C)C(N)=O)NC(=O)[C@H]([C@@H](C)O)NC(=O)[C@H](C(C)C)NC(=O)[C@H](CC2CCCCC2)NC(=O)[C@H](CCN)NC(=O)[C@@H](CC2CCCCC2)NC(=O)[C@H](CCCN)NC(=O)[C@H](CCCNC(N)=O)NC(=O)[C@H](Cc2ccc(-c3ccccc3)cc2)NC1=O [Compound 1641] ({CH2CO}-Y(Carboxymethyl)Y(Carboxymethyl)DWV[Bip][Cit][Orn][dCha][Dab][Cha]VTCA-NH2; thioether N-14) | 37.1 |

Second part, the compound after the results:

| IC50 [nM] | SMILES |
| --- | --- |
| 21.5 | CC(C)C[C@@H]1NC(=O)[C@H](CCN)NC(=O)[C@@H](CC(C)C)NC(=O)[C@H](CCCN)NC(=O)[C@H](CCCNC(N)=O)NC(=O)[C@H](Cc2ccc(-c3ccccc3)cc2)NC(=O)[C@H](C(C)C)NC(=O)[C@H](Cc2c[nH]c3ccccc23)NC(=O)[C@H](CC(=O)O)NC(=O)[C@H](Cc2ccc(C(=O)O)cc2)NC(=O)[C@H](Cc2ccc(OCC(=O)O)cc2)NC(=O)CSC[C@@H](C(=O)N[C@@H](C)C(N)=O)NC(=O)[C@H]([C@@H](C)O)NC(=O)[C@H](C(C)C)NC1=O [Compound 1252] ({CH2CO}-Y(Carboxymethyl)[Phe(4-COOH)]DWV[Bip][Cit][Orn][dL][Dab]LVTCA-NH2; thioether N-14) |
| 19.5 | CC(C)C[C@H]1NC(=O)[C@H](CCCN)NC(=O)[C@H](C(C)C)NC(=O)[C@H](Cc2ccc(-c3ccccc3)cc2)NC(=O)[C@H](C(C)C)NC(=O)[C@H](Cc2c[nH]c3ccccc23)NC(=O)[C@H](CC(=O)O)NC(=O)[C@H](Cc2ccc(OCC(=O)O)cc2)NC(=O)[C@H](CCCCNC(=N)N)NC(=O)CSC[C@@H](C(=O)N[C@@H](C)C(N)=O)NC(=O)[C@H](C(C)O)NC(=O)[C@H](C(C)C)NC(=O)[C@H](CC2CCCCC2)NC(=O)[C@H](Cc2c[nH]cn2)NC1=O (stereo partly drawn) [Compound 2555] |
| 19.5 | Cc1cccc(C[C@@H]2NC(=O)[C@H](CC(=O)O)NC(=O)[C@H](Cc3ccc(OCC(=O)O)cc3)NC(=O)[C@H]([C@@H](C)O)NC(=O)CSC[C@@H](C(=O)NC3(C(N)=O)CC3)NC(=O)[C@H](CO)NC(=O)[C@H](C(C)C)NC(=O)[C@H](CC3CCCCC3)NC(=O)[C@H](CCN)NC(=O)[C@@H](CC(C)C)NC(=O)[C@H](CCCN)NC(=O)[C@H](Cc3ccc(OCC(=O)O)cc3)NC(=O)[C@H](Cc3ccc(-c4ccccc4)cc3)NC(=O)[C@H](Cc3ccc(OCC(=O)O)cc3)NC2=O)c1 [Compound 2065] ({CH2CO}-TY(Carboxymethyl)D[Phe(3-Me)]Y(Carboxymethyl)[Bip]Y(Carboxymethyl)[Orn][dL][Dab][Cha]VSC[Ac3c]-NH2; thioether N-14) |
| 17.7 | Cc1cccc(C[C@@H]2NC(=O)[C@H](CC(=O)O)NC(=O)[C@H](Cc3ccc(O)cc3)NC(=O)[C@H](CC(N)=O)NC(=O)CSC[C@@H](C(=O)N[C@@H](C)C(N)=O)NC(=O)[C@H]([C@@H](C)O)NC(=O)[C@H](C(C)C)NC(=O)[C@H](CC3CCCCC3)NC(=O)[C@H](Cc3cnc[nH]3)NC(=O)[C@@H](CC(C)C)NC(=O)[C@H](CCCN)NC(=O)[C@H](C(C)C)NC(=O)[C@H](Cc3ccc(-c4ccccc4)cc3)NC(=O)[C@H](C(C)C)NC2=O)c1 [Compound 1586] ({CH2CO}-NYD[Phe(3-Me)]V[Bip]V[Orn][dL]H[Cha]VTCA-NH2; thioether N-14) |
| 16 | CC(C)C[C@H]1NC(=O)[C@H](CCCN)NC(=O)[C@H](CCC(=O)O)NC(=O)[C@H](Cc2ccc(-c3ccccc3)cc2)NC(=O)[C@H](C(C)C)NC(=O)[C@H](Cc2c[nH]c3ccccc23)NC(=O)[C@H](CC(=O)O)NC(=O)[C@H](Cc2ccc(N)cc2)NC(=O)[C@H](CN)NC(=O)CSC[C@@H](C(=O)N[C@@H](C)C(N)=O)NC(=O)[C@H]([C@@H](C)O)NC(=O)[C@H](C(C)C)NC(=O)[C@H](CC2CCCCC2)NC(=O)[C@H](CCN)NC1=O [Compound 2182] |
| 11.3 | CC[C@@H]1NC(=O)[C@H](Cc2c[nH]c3ccccc23)NC(=O)[C@H](CC(=O)O)NC(=O)[C@H](Cc2ccc(OCC(=O)O)cc2)NC(=O)[C@H](CN)NC(=O)CSC[C@@H](C(=O)N[C@@H](C)C(N)=O)NC(=O)[C@H]([C@@H](C)O)NC(=O)[C@H](C(C)C)NC(=O)[C@H](CC2CCCCC2)NC(=O)[C@H](CCN)NC(=O)[C@@H](CC(C)C)NC(=O)[C@H](CCCN)NC(=O)[C@H]([C@@H](C)CC)NC(=O)[C@H](Cc2ccc(-c3ccccc3)cc2)NC1=O [Compound 1721] ({CH2CO}-[Dap]Y(Carboxymethyl)DW[Abu][Bip]I[Orn][dL][Dab][Cha]VTCA-NH2; thioether N-14) |
| 11.2 | CC(C)C[C@H]1NC(=O)[C@H](CCCN)NC(=O)[C@H](C(C)C)NC(=O)[C@H](Cc2ccc(-c3ccccc3)cc2)NC(=O)[C@H](C(C)C)NC(=O)[C@H](Cc2c[nH]c3ccccc23)NC(=O)[C@H](CC(=O)O)NC(=O)[C@H](Cc2ccc(OCC(=O)O)cc2)NC(=O)[C@H](CN)NC(=O)CSC[C@@H](C(=O)N[C@@H](C)C(N)=O)NC(=O)[C@H]([C@@H](C)O)NC(=O)[C@H](C(C)C)NC(=O)[C@H](Cc2cccc(F)c2)NC(=O)[C@H](CCN)NC1=O [Compound 1672] ({CH2CO}-[Dap]Y(Carboxymethyl)DWV[Bip]V[Orn][dL][Dab][Phe(3-F)]VTCA-NH2; thioether N-14) |
| 7.4 | CC(C)C[C@@H]1NC(=O)[C@H](Cc2c[nH]c3ccccc23)NC(=O)[C@H](CC(=O)O)NC(=O)[C@H](Cc2ccc(C(=O)O)cc2)NC(=O)[C@H](Cc2ccc(OCC(=O)O)cc2)NC(=O)CSC[C@@H](C(=O)NCC(N)=O)NC(=O)[C@H](CO)NC(=O)[C@H](C(C)C)NC(=O)[C@H](CC2CCCCC2)NC(=O)[C@H](CCN)NC(=O)[C@@H](CC(C)C)NC(=O)[C@H](CCCN)NC(=O)[C@H](C(C)C)NC(=O)[C@H](Cc2ccc(-c3ccccc3)cc2)NC1=O [Compound 1405] ({CH2CO}-Y(Carboxymethyl)[Phe(4-COOH)]DWL[Bip]V[Orn][dL][Dab][Cha]VSCG-NH2; thioether N-14) |

Reference: patent publication US20250163104A1, “MACROCYCLIC IMMUNOMODULATORS” (priority 2021, published 2025)
